Measured values reported in US7858635B2 (priority 2005, dated 2010).
Read-outs that look alike come from different tables or passages of the source.

Experiments:
[1] = biological target: T1, M1 muscarinic receptor (Homo sapiens, UniProt P11229); experiment: Functional mobilization of intracellular calcium (FLIPR, Fluo-3), M1-CHO cells; assay type: cell-based; conditions: for Emax: 100% efficacy is the maximum response obtained with the Carbachol control, read-out: M1 Efficacy
T1 construct: expressed in transfected cells; host or cells: CHO cells (M1-CHO, under zeocin and G418 selection)
T1 sequence (P11229 1-460): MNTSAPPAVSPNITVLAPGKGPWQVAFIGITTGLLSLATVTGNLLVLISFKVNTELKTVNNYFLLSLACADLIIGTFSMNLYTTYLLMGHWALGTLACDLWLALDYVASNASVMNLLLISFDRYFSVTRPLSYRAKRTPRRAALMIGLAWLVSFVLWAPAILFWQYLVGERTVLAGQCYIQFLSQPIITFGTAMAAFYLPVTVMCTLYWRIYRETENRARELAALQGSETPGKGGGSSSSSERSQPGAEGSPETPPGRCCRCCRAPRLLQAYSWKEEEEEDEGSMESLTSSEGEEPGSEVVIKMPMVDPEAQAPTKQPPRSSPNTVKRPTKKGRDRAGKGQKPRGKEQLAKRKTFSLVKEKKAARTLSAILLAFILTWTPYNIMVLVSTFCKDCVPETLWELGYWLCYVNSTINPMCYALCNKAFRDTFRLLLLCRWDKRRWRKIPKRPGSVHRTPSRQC
Outline: (§1)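 Intracellular calcium was tracked by fluorescence (488/540 nm) over 60 sec after compound addition to dye-loaded CHO cells expressing the receptor. Inhibitory activity used a 15 min pre-incubation before carbachol at the subtype EC80.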

[2] = biological target: T2, M4 muscarinic receptor (Homo sapiens, UniProt P08173); experiment: Functional mobilization of intracellular calcium (FLIPR, Fluo-3), M4-CHO cells; assay type: cell-based; conditions: for Emax: 100% efficacy is the maximum response obtained with the Carbachol control, read-out: M4 Efficacy
T2 construct: expressed in transfected cells; host or cells: CHO cells (M4-CHO, under puromycin, zeocin and blasticidin selection)
T2 sequence (P08173 1-479): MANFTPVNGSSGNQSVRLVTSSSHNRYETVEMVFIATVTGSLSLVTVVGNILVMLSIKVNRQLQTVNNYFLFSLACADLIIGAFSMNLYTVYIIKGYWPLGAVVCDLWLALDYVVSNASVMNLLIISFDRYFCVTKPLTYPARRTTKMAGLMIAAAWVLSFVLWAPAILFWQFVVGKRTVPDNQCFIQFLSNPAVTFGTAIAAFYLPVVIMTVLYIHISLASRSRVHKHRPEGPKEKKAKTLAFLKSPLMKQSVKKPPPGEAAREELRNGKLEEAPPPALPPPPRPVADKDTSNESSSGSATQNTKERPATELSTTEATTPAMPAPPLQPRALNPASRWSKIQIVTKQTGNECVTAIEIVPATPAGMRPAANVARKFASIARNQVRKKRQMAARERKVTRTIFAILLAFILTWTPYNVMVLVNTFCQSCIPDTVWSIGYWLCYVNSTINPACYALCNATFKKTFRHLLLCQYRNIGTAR
Outline: as §1

[3] = compound nos. 1-454, M1-CHO cells, calcium mobilization
[4] = compound nos. 1-454, M4-CHO cells, calcium mobilization

Compound	Emax ([1]; compound nos. 1-454) [%]	M1 Activity [1, 3]	Emax ([2]; compound nos. 1-454) [%]	M4 Activity [2, 4]	Emax ([1]; compound nos. 455-509) [%]	M1 Activity ([1]; compounds 455-509)	Emax ([2]; compound nos. 455-509) [%]	M4 Activity ([2]; compounds 455-509)	M1 Activity ([1]; compound nos. 1-454)	M4 Activity ([2]; compound nos. 1-454)
COCCOC(=O)N1C2CCC1CC(N1CCC3(CC1)CN(C(=O)OC)c1ccc(F)cc13)C2 (stereo not shown) [compound 33]	> 85	+++ (activity was measured to be less than or equal to 0.7 μM)	> 70	+++ (activity was measured to be less than or equal to 0.1 μM)						
COC(=O)N1CCCC(N2CCC3(CC2)CN(C(C)=O)c2ccc(F)cc23)CC1 (stereo not shown) [compound 132]	> 85	+++ (activity was measured to be less than or equal to 0.7 μM)	> 70	+++ (activity was measured to be less than or equal to 0.1 μM)						
CC(=O)N[C@H]1CC2(CCN(C3CCC[C@@H](C)C3)CC2)c2ccccc21 (stereo partly shown) [compound 358]	65 to 85	+++ (activity was measured to be less than or equal to 0.7 μM)	55 to 70	++ (activity was measured to be between 0.1 μM and 4.0 μM)						
CC(=O)N1CC2(CCN(C3CCCC3)CC2)c2cc(F)ccc21 [compound 343]	65 to 85	+++ (activity was measured to be less than or equal to 0.7 μM)	< 55	+++ (activity was measured to be less than or equal to 0.1 μM)						
CCOC(=O)N1C2CCC1CC(N1CCC3(CC1)CN(C(=O)O[C@@H]1CCOC1)c1ccc(F)cc13)C2 (stereo partly shown) [compound 28]	> 85	+++ (activity was measured to be less than or equal to 0.7 μM)	55 to 70	++ (activity was measured to be between 0.1 μM and 4.0 μM)						
CN(C)C(=O)N1CC2(CCN(C3CC4CCC(C3)N4C(=O)O[C@@H]3CCOC3)CC2)c2cc(F)ccc21 (stereo partly shown) [compound 188]	< 65	+ (activity was measured to be greater than or equal to 3.0 μM)	55 to 70	+ (activity was measured to be greater than or equal to 4.0 μM)						
CC(C)OC(=O)N1C2CCC1CC(N1CCC3(CC1)CN(S(C)(=O)=O)c1ccc(F)cc13)C2 (stereo not shown) [compound 170]	65 to 85	++ (activity was measured to be between 0.7 μM and 3.0 μM)	> 70	+ (activity was measured to be greater than or equal to 4.0 μM)						
CCC(=O)CCN1CC2(CCN(C[C@@H]3C[C@H]4C=C[C@H]3C4)CC2)c2cc(F)ccc21 [compound 12]	< 65	+++ (activity was measured to be less than or equal to 0.7 μM)	< 55	++ (activity was measured to be between 0.1 μM and 4.0 μM)						
O=C(O[C@H]1CCOC1)N1C2CCC1CC(N1CCC3(CC1)C(=O)Nc1ccccc13)C2 (stereo partly shown) [compound 301]	< 65	+ (activity was measured to be greater than or equal to 3.0 μM)	< 55	+ (activity was measured to be greater than or equal to 4.0 μM)						
CN(C)C(=O)N1CC2(CCN(C3CCN(c4cncc(-c5ccccc5O)n4)CC3)CC2)c2ccccc21 [compound 481]					< 25	+++ (activity was measured to be less than or equal to 2.0 μM)	< 25	++ (activity was measured to be between 2.0 μM and 5.0 μM)		
CCOC(=O)N1CCC(CN2CCC3(CC2)C(=O)Nc2ccccc23)CC1 [compound 319]	< 65	++ (activity was measured to be between 0.7 μM and 3.0 μM)	< 55	+ (activity was measured to be greater than or equal to 4.0 μM)						
Clc1ccc2c(c1)C1(CCO2)CCN(C2CCOCC2)CC1 [compound 178]	> 85	++ (activity was measured to be between 0.7 μM and 3.0 μM)	55 to 70	+ (activity was measured to be greater than or equal to 4.0 μM)						
Cc1ccc2c(c1)C1(CCN(C3C4CCCC3CCC4)CC1)CN2 (stereo not shown) [compound 72]	65 to 85	+++ (activity was measured to be less than or equal to 0.7 μM)	55 to 70	++ (activity was measured to be between 0.1 μM and 4.0 μM)						
CCOC(=O)N1CCC(N2CCC3(CC2)CN(C(=O)N2CCOCC2)c2ccc(F)cc23)CC1 [compound 290]	< 65	+++ (activity was measured to be less than or equal to 0.7 μM)	< 55	+ (activity was measured to be greater than or equal to 4.0 μM)						
CN(C)C(=O)N1CC2(CCN(C3CCN(c4cncnc4)CC3)CC2)c2cc(F)ccc21 [compound 446]	65 to 85		55 to 70						++ (activity was measured to be between 0.7 μM and 3.0 μM)	+++ (activity was measured to be less than or equal to 0.1 μM)
Cc1nsc(N2C3CCC2CC(N2CCC4(CC2)CN(C(=O)N(C)C)c2ccccc24)C3)n1 (stereo not shown) [compound 493]					> 100	+++ (activity was measured to be less than or equal to 2.0 μM)	25 to 100	++ (activity was measured to be between 2.0 μM and 5.0 μM)		
CCCOC(=O)N1CCC(N2CCC3(CC2)CN(C(C)=O)c2ccc(F)cc23)CC1 [compound 79]	< 65	++ (activity was measured to be between 0.7 μM and 3.0 μM)	< 55	+ (activity was measured to be greater than or equal to 4.0 μM)						
CCOC(=O)N1CCC(N2CCC3(CC2)CN(C(C)=O)c2ccc(-c4ccc(OC)cc4)cc23)CC1 [compound 193]	< 65	+ (activity was measured to be greater than or equal to 3.0 μM)	< 55	+ (activity was measured to be greater than or equal to 4.0 μM)						
CC(=O)NC1CC2(CCN(C3CCCCC3)CC2)c2ccccc21 (stereo not shown) [compound 2]	< 65	+ (activity was measured to be greater than or equal to 3.0 μM)	< 55	+ (activity was measured to be greater than or equal to 4.0 μM)						
CCCOC(=O)N1C2CCC1CC(N1CCC3(CC1)CN(C(=O)OCCOC)c1ccc(F)cc13)C2 (stereo not shown) [compound 405]	< 65		< 55						++ (activity was measured to be between 0.7 μM and 3.0 μM)	+ (activity was measured to be greater than or equal to 4.0 μM)
CN(C)C(=O)N1CC2(CCN(CC3CCN(c4nccs4)C3)CC2)c2cc(F)ccc21 (stereo not shown) [compound 450]	65 to 85		55 to 70						++ (activity was measured to be between 0.7 μM and 3.0 μM)	+++ (activity was measured to be less than or equal to 0.1 μM)
CC(C)OC(=O)N1C2CCC1CC(N1CCC3(CCc4ccccc43)CC1)C2 (stereo not shown) [compound 285]	< 65	++ (activity was measured to be between 0.7 μM and 3.0 μM)	< 55	+ (activity was measured to be greater than or equal to 4.0 μM)						
Cc1ccc2c(c1)C1(CCN(C3CC4CCC3C4)CC1)CN2S(C)(=O)=O (stereo not shown) [compound 232]	< 65	++ (activity was measured to be between 0.7 μM and 3.0 μM)	> 70	+++ (activity was measured to be less than or equal to 0.1 μM)						
CC(=O)N[C@H]1CC2(CCN(C3CC4CCC(C4)C3)CC2)c2ccccc21 (stereo partly shown) [compound 337]	< 65	+ (activity was measured to be greater than or equal to 3.0 μM)	< 55	+ (activity was measured to be greater than or equal to 4.0 μM)						
CCOC(=O)N1CCC(N2CCC3(CC2)CN(C(=O)N(C)C)c2ccc(F)cc23)CC1 [compound 39]	65 to 85	+++ (activity was measured to be less than or equal to 0.7 μM)	> 70	++ (activity was measured to be between 0.1 μM and 4.0 μM)						
